{"source": "patent US8765433B2", "about": "“Alcohol dehydrogenases (ADH) useful for fermentive production of lower alkyl alcohols” (priority 2009, dated 2014)", "assay_in_all_cases": "isobutyraldehyde reduction kinetics (A340, initial rates)", "assay_type_in_all_cases": "biochemical", "key": {"[1]": {"molecular_target": "T1, horse liver ADH (HLADH), SEQ ID NO: 21 (Equus caballus, UniProt P00327)", "T1 construct": "purchased Sigma A-6128", "T1 sequence (P00327 whole entry)": "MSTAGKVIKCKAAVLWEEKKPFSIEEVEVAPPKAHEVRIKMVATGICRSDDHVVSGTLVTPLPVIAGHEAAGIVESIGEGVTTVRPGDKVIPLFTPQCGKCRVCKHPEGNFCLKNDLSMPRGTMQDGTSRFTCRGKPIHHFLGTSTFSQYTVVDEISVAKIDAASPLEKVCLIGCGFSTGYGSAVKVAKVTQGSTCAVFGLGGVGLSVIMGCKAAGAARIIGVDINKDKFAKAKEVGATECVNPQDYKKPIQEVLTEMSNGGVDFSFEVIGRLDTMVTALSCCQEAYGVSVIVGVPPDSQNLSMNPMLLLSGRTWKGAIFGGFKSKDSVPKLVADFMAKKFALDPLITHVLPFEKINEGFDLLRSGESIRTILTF", "conditions": "relative to SadB", "text": "(§1) This example describes preparation of ADH-gene constructs for over-expression/purification and measurement of enzyme activities using a time-course assay. Horse-liver ADH (HLADH; A-6128) was purchased from Sigma. Achromobacter xylosoxidans SadB (SadB), Saccharomyces cerevisiae ADH6 (ScADH6) and ADH7 (ScADH7), Entamoeba histolytica ADH1 (EhADH1), Bos Taurus Aldehyde Reductase (BtARD), Beijerinckia indica subsp. Indica ATCC 9039 (BiADH), Clostridium beijerinckii ADH (CbADH), Rana perezi ADH8 (RpADH8), Rattus norvegicus ADH1 (RnADH1), Thermus sp. ATN1 ADH (TADH), Phenylobacterium zucineum HLK1 ADH (PzADH), Methylocella silvestris BL2 ADH (MsADH), Acinetobacter baumannii AYE ADH (AbADH), Geobacillus sp. WCH70 ADH (GbADH), Vanderwaltozyma polyspora DSM 70294 ADH (VpADH), Mucor circinelloides ADH (McADH), and Rhodococcus erythropolis PR4ADH (ReADH) were the candidates for which subclones were prepared for protein expression and purification.\n(§2) As a routine practice, the crude extracts and purified proteins were assayed for butanol oxidation activity, in order to ensure that the recombinant proteins were active throughout the purification process. […] Alcohol oxidation activities were carried out in 50 mM sodium phosphate buffer at pH 8.8 and aldehyde reduction reactions were assayed in 190 mM potassium phosphate buffer at pH 7.0. Depending on the nature of reaction being carried out, the enzyme and cofactor stocks were diluted in the reaction buffers at the respective pHs. Either buffer or cell extract prepared from the proprietary E. coli strain (with no ADH plasmid) was used as the negative control for assays with purified protein and cell-free extracts, respectively.\nKinetic constants of the ADH enzymes were calculated and compared to identify those candidate ADH enzymes with the most desirable properties for the conversion of isobutyraldehyde to isobutanol in the last step of the engineered pathway for isobutanol production. The assays for determining the kinetic constants were carried out using initial rates from the assays described above. […] The concentration of a given enzyme was such that it was conducive for the measurement of initial velocities over a 1-min time course. For each enzyme, Michaelis-Menten plots were generated with a broad range of substrate concentrations. Rough estimates of KM were obtained, based on which the assays were redesigned so as to use substrate concentrations in the range 0.5 to 10 times the KM value, to be able to obtain the appropriate kinetic constants. […] Reactions with isobutanol substrate were performed at 30° C. in 50 mM Sodium phosphate buffer, pH 8.8, containing 7.5 mM NAD. The Enzyme kinetics module (Version 1.3) of SigmaPlot 11 (Systat Software, Inc.) was used to fit data to Michaelis-Menten equations and calculate the kinetic constants. The kcat/KM is derived from the individual numbers of kcat and KM and not an experimentally determined value.\nFor those enzymes marked with an asterisk in Table 7, at least 3 assays were performed with separate preparations of the enzyme. All other numbers are values from either one assay or are averages from 2 assays performed with the same enzyme sample."}, "[2]": {"molecular_target": "T2, Phenylobacterium zucineum HLK1 ADH (PzADH), SEQ ID NO: 34 (Phenylobacterium zucineum, UniProt B4RIA4)", "T2 sequence (B4RIA4 1-345)": "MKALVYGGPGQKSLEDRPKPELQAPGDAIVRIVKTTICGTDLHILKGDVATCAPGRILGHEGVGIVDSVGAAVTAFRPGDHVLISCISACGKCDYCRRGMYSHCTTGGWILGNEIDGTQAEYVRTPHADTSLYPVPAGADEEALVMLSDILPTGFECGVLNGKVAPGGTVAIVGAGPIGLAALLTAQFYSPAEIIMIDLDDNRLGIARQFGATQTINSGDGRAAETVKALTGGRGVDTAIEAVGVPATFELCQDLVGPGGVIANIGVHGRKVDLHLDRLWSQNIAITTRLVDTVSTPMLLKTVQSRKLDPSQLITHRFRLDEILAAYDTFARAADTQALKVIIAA", "text": "as §1, §2\n(§3) Kinetic constants of the ADH enzymes were calculated and compared to identify those candidate ADH enzymes with the most desirable properties for the conversion of isobutyraldehyde to isobutanol in the last step of the engineered pathway for isobutanol production. The assays for determining the kinetic constants were carried out using initial rates from the assays described above. […] The concentration of a given enzyme was such that it was conducive for the measurement of initial velocities over a 1-min time course. For each enzyme, Michaelis-Menten plots were generated with a broad range of substrate concentrations. Rough estimates of KM were obtained, based on which the assays were redesigned so as to use substrate concentrations in the range 0.5 to 10 times the KM value, to be able to obtain the appropriate kinetic constants. […] When calculating the KI for isobutanol, the same reactions were carried out in the presence of varying concentrations of isobutanol (generally 0-535 mM) in the reaction (see FIG. 7, for example). Reactions with isobutanol substrate were performed at 30° C. in 50 mM Sodium phosphate buffer, pH 8.8, containing 7.5 mM NAD. The Enzyme kinetics module (Version 1.3) of SigmaPlot 11 (Systat Software, Inc.) was used to fit data to Michaelis-Menten equations and calculate the kinetic constants. The kcat/KM is derived from the individual numbers of kcat and KM and not an experimentally determined value. The ratios of the KM, KI, and kcat/KM for each candidate enzyme as compared to the same parameter for SadB are given in Table 9.\n(§4) Seven additional candidate ADH enzymes were synthesized, expressed, and assayed according to methods such as described in Example 2. Kinetic constants obtained for the indicated ADH enzymes (Phenylobacterium zucineum HLK1 ADH (PzADH), Methylocella silvestris BL2 ADH (MsADH), Acinetobacter baumannii AYE ADH (AbADH), Geobacillus sp. WCH70 ADH (GbADH), and Mucor circinelloides ADH (McADH)) are given in Table 8. A comparison of KM, KI, and kcat/KM for each candidate enzyme as compared to the same parameter for SadB are given in Table 9 as a percentage of the values determined (Table 7) for SadB. […]"}, "[3]": {"molecular_target": "Acinetobacter baumannii AYE ADH (AbADH), SEQ ID NO: 36", "text": "as §1, §2, §3, §4"}, "[4]": {"molecular_target": "Mucor circinelloides ADH (McADH), SEQ ID NO: 39 (Mucor circinelloides, UniProt Q66UT6)", "sequence (Q66UT6 entry or part of it)": "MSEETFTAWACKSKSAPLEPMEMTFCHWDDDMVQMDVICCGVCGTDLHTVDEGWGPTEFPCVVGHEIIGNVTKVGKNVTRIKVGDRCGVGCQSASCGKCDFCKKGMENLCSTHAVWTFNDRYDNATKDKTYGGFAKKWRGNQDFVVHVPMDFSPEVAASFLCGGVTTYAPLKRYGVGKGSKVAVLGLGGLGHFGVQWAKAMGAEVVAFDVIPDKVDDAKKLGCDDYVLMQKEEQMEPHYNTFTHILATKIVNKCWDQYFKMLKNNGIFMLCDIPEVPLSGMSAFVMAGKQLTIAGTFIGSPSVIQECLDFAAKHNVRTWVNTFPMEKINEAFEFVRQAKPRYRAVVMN", "text": "as §1, §2, §3, §4"}, "[5]": {"molecular_target": "T3, Geobacillus sp. WCH70 ADH (GbADH), SEQ ID NO: 37 (Parageobacillus toebii, UniProt A0A6G9J337)", "T3 construct": "346 aa, begins […]) in pBADHisA, N-terminal His tag, expressed in E. coli, purified", "T3 sequence (A0A6G9J337 entry or part of it)": "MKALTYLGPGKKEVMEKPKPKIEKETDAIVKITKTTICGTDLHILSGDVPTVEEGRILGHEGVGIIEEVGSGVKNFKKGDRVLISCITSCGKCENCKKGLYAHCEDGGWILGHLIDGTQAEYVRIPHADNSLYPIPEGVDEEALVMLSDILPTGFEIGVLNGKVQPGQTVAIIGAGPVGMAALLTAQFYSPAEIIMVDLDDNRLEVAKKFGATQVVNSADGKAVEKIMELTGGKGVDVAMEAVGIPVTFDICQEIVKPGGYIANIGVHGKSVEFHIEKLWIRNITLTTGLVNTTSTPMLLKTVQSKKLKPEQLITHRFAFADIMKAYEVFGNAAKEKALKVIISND", "text": "as §1, §2, §3, §4"}}}
{"smiles": "CC(C)CO", "note": "[isobutanol, 2-methylpropan-1-ol]", "values": [{"measurement": "KI as a percentage of the same parameter for SadB", "setting": "[1]", "result": 1, "unit": "%"}, {"measurement": "Ki", "setting": "[2]; read-out: KI (Isobutanol)", "result": 13, "unit": "mM"}, {"measurement": "KI as a percentage of the same parameter for SadB", "setting": "[2]; relative to SadB", "result": 7, "unit": "%"}, {"measurement": "KI as a percentage of the same parameter for SadB", "setting": "[3]; relative to SadB", "result": 169, "unit": "%"}, {"measurement": "Ki", "setting": "[4]; read-out: KI (Isobutanol)", "result": 79, "unit": "mM"}, {"measurement": "KI as a percentage of the same parameter for SadB", "setting": "[4]; relative to SadB", "result": 44, "unit": "%"}, {"measurement": "Ki", "setting": "[5]; isobutyraldehyde reduction, varying isobutanol, NADPH specific", "result": 13, "unit": "mM"}, {"measurement": "KI as a percentage of the same parameter for SadB", "setting": "[5]; relative to SadB", "result": 7, "unit": "%"}]}
{"smiles": "CC(C)C=O", "note": "[isobutyraldehyde]", "values": [{"measurement": "KM as a percentage of the same parameter for SadB", "setting": "[1]", "result": 10, "unit": "%"}, {"measurement": "kcat as a percentage of the same parameter for SadB", "setting": "[1]", "result": 7, "unit": "%"}, {"measurement": "kcat/KM as a percentage of the same parameter for SadB", "setting": "[1]", "result": 78, "unit": "%"}, {"measurement": "KM as a percentage of the same parameter for SadB", "setting": "[2]; relative to SadB", "result": 10, "unit": "%"}, {"measurement": "kcat as a percentage of the same parameter for SadB", "setting": "[2]; relative to SadB", "result": 28, "unit": "%"}, {"measurement": "kcat/KM as a percentage of the same parameter for SadB", "setting": "[2]; relative to SadB", "result": 243, "unit": "%"}, {"measurement": "Km", "setting": "[3]; 30° C., pH 7.0, NADH specific, read-out: KM (Isobutanal)", "result": 10, "unit": "mM"}, {"measurement": "kcat", "setting": "[3]; isobutyraldehyde reduction, 30° C., pH 7.0, NADH specific", "result": 99, "unit": "s⁻¹"}, {"measurement": "KM as a percentage of the same parameter for SadB", "setting": "[3]; relative to SadB", "result": 1020, "unit": "%"}, {"measurement": "kcat as a percentage of the same parameter for SadB", "setting": "[3]; relative to SadB", "result": 91, "unit": "%"}, {"measurement": "kcat/KM as a percentage of the same parameter for SadB", "setting": "[3]; relative to SadB", "result": 9, "unit": "%"}, {"measurement": "KM as a percentage of the same parameter for SadB", "setting": "[4]; relative to SadB", "result": 3000, "unit": "%"}, {"measurement": "kcat as a percentage of the same parameter for SadB", "setting": "[4]; relative to SadB", "result": 138, "unit": "%"}, {"measurement": "kcat/KM as a percentage of the same parameter for SadB", "setting": "[4]; relative to SadB", "result": 5, "unit": "%"}, {"measurement": "KM as a percentage of the same parameter for SadB", "setting": "[5]; relative to SadB", "result": 44, "unit": "%"}, {"measurement": "kcat as a percentage of the same parameter for SadB", "setting": "[5]; relative to SadB", "result": 29, "unit": "%"}, {"measurement": "kcat/KM as a percentage of the same parameter for SadB", "setting": "[5]; relative to SadB", "result": 69, "unit": "%"}]}
